In brackets after ≈: the same amount, converted by molar mass.
Tests used:
[1] = molecular target: Induced myeloid leukemia cell differentiation protein Mcl-1 (Homo sapiens, UniProt Q07820); assay: Inhibition of Mcl-1 (172-327) (unknown origin) using BIOTIN-AHXGQVGRQLAIIGDDINR-amide peptide by TR-FRET based BAK peptide displacement assay
NCI-H929 = assay: Cytotoxicity against human NCI-H929 cells assessed as cell viability measured after 72 hrs incubation by CellTiterGlo assay; format: functional, cell-based; details: NCI-H929, 72 h
[2] = Kinetic solubility of the compound in pH 7.4 buffer measured after 24 hrs by LC-UV analysis; format: physicochemical; details: read-out: Kinetic_solubility

Induced myeloid leukemia cell differentiation protein Mcl-1, sequence (Q07820 whole entry): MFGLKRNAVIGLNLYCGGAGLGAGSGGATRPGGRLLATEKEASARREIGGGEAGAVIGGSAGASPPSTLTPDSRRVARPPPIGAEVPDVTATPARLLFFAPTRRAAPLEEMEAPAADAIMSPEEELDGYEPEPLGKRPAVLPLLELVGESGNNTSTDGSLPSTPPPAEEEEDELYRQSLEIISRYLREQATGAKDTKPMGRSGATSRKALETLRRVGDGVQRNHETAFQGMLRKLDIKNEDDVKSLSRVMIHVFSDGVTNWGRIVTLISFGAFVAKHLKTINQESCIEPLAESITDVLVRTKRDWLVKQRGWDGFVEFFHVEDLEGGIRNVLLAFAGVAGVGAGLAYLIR

| SMILES | IC50 [1] [nM] | IC50 (NCI-H929) [nM] | solubility kinetic at 24 h [2] [µM] |
| --- | --- | --- | --- |
| CCOc1cccc2c1OC(C)(C)C(=O)N[C@H]1CC[C@H](CC1)CC(=O)N[C@@H](c1ccccc1)C(=O)N[C@H](Cc1ccccc1)C(=O)NCCc1ccc(cc1)OC2 | 59 |  |  |
| CCOc1cccc2c1OCC(=O)N[C@H]1CC[C@H](CC1)CC(=O)N[C@@H](CC(C)C)C(=O)N[C@H](CC1CCCCC1)C(=O)N[C@H](C(=O)NC)Cc1ccc(cc1)OC2 | 98 |  |  |
| CCOc1cc(-c2ccc(C(F)(F)F)cc2)cc2c1OCC(=O)N[C@H]1CC[C@H](CC1)CC(=O)N[C@@H](c1ccccc1)C(=O)N[C@H](Cc1ccccc1)C(=O)NCCc1ccc(cc1)OC2 | 39000 | 7100 |  |
| CCOc1cc(-c2ccc(F)c(OC)c2)cc2c1OCC(=O)N[C@H]1CC[C@H](CC1)CC(=O)N[C@@H](c1ccccc1)C(=O)N[C@H](Cc1ccccc1)C(=O)NCCc1ccc(cc1)OC2 | 50000 | 2100 |  |
| CCOc1cccc2c1OC(C)(C)C(=O)N[C@H]1CC[C@H](CC1)CC(=O)N[C@@H](C(C)C)C(=O)N[C@H](Cc1ccccc1)C(=O)NCCc1ccc(cc1)OC2 | 137 |  |  |
| COc1cccc2c1OCC(=O)N[C@H]1CC[C@H](CC1)CC(=O)N[C@@H](c1ccccc1)C(=O)N[C@H](Cc1ccccc1)C(=O)NCCc1ccc(cc1)OC2 | 174 |  |  |
| CCOc1cccc2c1OCC(=O)N[C@H]1CC[C@H](CC1)CC(=O)N(c1ccccc1)CC(=O)N(Cc1ccccc1)CC(=O)NCCc1ccc(cc1)OC2 | > 30000 |  |  |
| CCOc1cccc2c1OCC(=O)N[C@H]1CC[C@H](CC1)CC(=O)N[C@@H](Cc1ccc(O)cc1)C(=O)N[C@H](Cc1ccccc1)C(=O)NCCc1ccc(cc1)OC2 | 1370 |  | 37 (≈ 28.7 µg/mL) |
| CCOc1cccc2c1OCC(=O)N[C@H]1CC[C@H](CC1)CC(=O)N(c1ccccc1)CC(=O)N[C@H](Cc1ccccc1)C(=O)NCCc1ccc(cc1)OC2 | > 30000 |  |  |
| O=C1C[C@H]2CC[C@H](CC2)NC(=O)COc2c(Cl)cccc2COc2ccc(cc2)CCNC(=O)[C@@H](Cc2ccccc2)NC(=O)[C@H](c2ccccc2)N1 | 78 |  |  |
| CCOc1cccc2c1OCC(=O)N[C@H]1CC[C@H](CC1)CC(=O)N[C@@H](c1ccccc1)C(=O)N(C)[C@H](Cc1ccccc1)C(=O)NCCc1ccc(cc1)OC2 | 382 |  |  |
| CCOc1cccc2c1OCC(=O)N[C@H]1CC[C@H](CC1)CC(=O)N[C@@](C)(c1ccccc1)C(=O)N[C@H](Cc1ccccc1)C(=O)NCCc1ccc(cc1)OC2 | 1430 |  | 4 (≈ 3.04 µg/mL) |
| CCOc1cccc2c1OCC(=O)N[C@H]1CC[C@H](CC1)CC(=O)N[C@@H](Cc1c[nH]cn1)C(=O)N[C@H](Cc1ccccc1)C(=O)NCCc1ccc(cc1)OC2 | 7350 |  | 69 (≈ 51.8 µg/mL) |
| CCOc1cccc2c1OCC(=O)N[C@H]1CC[C@H](CC1)CC(=O)N[C@@H](CC1CCCCC1)C(=O)N[C@H](Cc1ccccc1)C(=O)N[C@H](C(=O)NC)Cc1ccc(cc1)OC2 | 101 |  |  |
| CCOc1cc(-c2ccc(F)c(C)c2)cc2c1OCC(=O)N[C@H]1CC[C@H](CC1)CC(=O)N[C@@H](c1ccccc1)C(=O)N[C@H](Cc1ccccc1)C(=O)NCCc1ccc(cc1)OC2 | 54000 | 2900 |  |
| CCOc1cc(C#Cc2cc(C)cc(C)c2)cc2c1OCC(=O)N[C@H]1CC[C@H](CC1)CC(=O)N[C@@H](c1ccccc1)C(=O)N[C@H](Cc1ccccc1)C(=O)NCCc1ccc(cc1)OC2 | 14000 | 3400 |  |
| CCOc1cc(-c2cc(C)cc(C)c2)cc2c1OCC(=O)N[C@H]1CC[C@H](CC1)CC(=O)N[C@@H](c1ccccc1)C(=O)N[C@H](Cc1ccccc1)C(=O)NCCc1ccc(cc1)OC2 | 15000 | > 10000 |  |
| CCOc1cccc2c1OCC(=O)N[C@H]1CC[C@H](CC1)CC(=O)N[C@@H](Cc1c[nH]c3ccccc13)C(=O)N[C@H](Cc1ccccc1)C(=O)NCCc1ccc(cc1)OC2 | 1440 |  | 1 (≈ 0.8 µg/mL) |

| SMILES | IC50 [1] [nM] | IC50 (NCI-H929) [nM] | solubility kinetic at 24 h [2] [µM] |
| --- | --- | --- | --- |
| CCOc1cccc2c1OCC(=O)N[C@H]1CC[C@H](CC1)CC(=O)N[C@@H](CC1CCCCC1)C(=O)N[C@H](CC1CCCCC1)C(=O)N[C@H](C(=O)NC)Cc1ccc(cc1)OC2 | 271 |  |  |
| CCOc1cccc2c1OCC(=O)N[C@H]1CC[C@H](CC1)CC(=O)N[C@@H](CCS(C)(=O)=O)C(=O)N[C@H](Cc1ccccc1)C(=O)NCCc1ccc(cc1)OC2 | 80 |  | 5 (≈ 3.88 µg/mL) |
| CCOc1cccc2c1OCC(=O)N[C@H]1CC[C@H](CC1)CC(=O)N[C@@H]([C@@H](C)OC)C(=O)N[C@H](Cc1ccccc1)C(=O)NCCc1ccc(cc1)OC2 | 678 |  | 25 (≈ 18.2 µg/mL) |
| CCOc1cccc2c1OCC(=O)N[C@H]1CC[C@H](CC1)CC(=O)N[C@@H](C1CCCCC1)C(=O)N[C@H](CC1CCCCC1)C(=O)N[C@H](C(=O)NC)Cc1ccc(cc1)OC2 | 179 |  |  |
| CCOc1cccc2c1OCC(=O)N[C@H]1CC[C@H](CC1)CC(=O)N[C@H](c1ccccc1)C(=O)N[C@H](Cc1ccccc1)C(=O)NCCc1ccc(cc1)OC2 | 7100 |  |  |
| CCOc1cccc2c1OCC(=O)N[C@H]1CC[C@H](CC1)CC(=O)N[C@@H](c1ccccc1)C(=O)N(Cc1ccccc1)CC(=O)NCCc1ccc(cc1)OC2 | 234 |  |  |
| CCOc1cccc2c1OCC(=O)N[C@H]1CC[C@H](CC1)CC(=O)N[C@@H](c1ccccc1)C(=O)N[C@H](CC1CCCCC1)C(=O)N[C@H](C(=O)NC)Cc1ccc(cc1)OC2 | 64 |  |  |
| CCOc1cc(C#Cc2cc(F)cc(F)c2)cc2c1OCC(=O)N[C@H]1CC[C@H](CC1)CC(=O)N[C@@H](c1ccccc1)C(=O)N[C@H](Cc1ccccc1)C(=O)NCCc1ccc(cc1)OC2 | 5600 | 3300 |  |
| CCOc1cccc2c1OCC(=O)N[C@H]1CC[C@H](CC1)CC(=O)N[C@@H](c1cccnc1)C(=O)N[C@H](Cc1ccccc1)C(=O)NCCc1ccc(cc1)OC2 | 43 |  | 6 (≈ 4.49 µg/mL) |
| CC(C)C[C@@H]1NC(=O)C[C@H]2CC[C@H](CC2)NC(=O)COc2c(Cl)cccc2COc2ccc(cc2)CCNC(=O)[C@@H](Cc2ccccc2)NC1=O | 253 |  |  |
| CCOc1cccc2c1OCC(=O)N[C@H]1CC[C@H](CC1)CC(=O)N(C)[C@@H](c1ccccc1)C(=O)N[C@H](Cc1ccccc1)C(=O)NCCc1ccc(cc1)OC2 | > 30000 |  |  |
| CCOc1cccc2c1OCC(=O)N[C@H]1CC[C@H](CC1)CC(=O)N[C@@H](CC(C)C)C(=O)N[C@H](Cc1ccccc1)C(=O)NCCc1ccc(cc1)OC2 | 90 |  |  |
| CCOc1cccc2c1OC(C)(C)C(=O)N[C@H]1CC[C@H](CC1)CC(=O)N[C@@H](c1ccccc1)C(=O)N[C@H](CC1CCCCC1)C(=O)NCCc1ccc(cc1)OC2 | 124 |  |  |
| CCOc1cccc2c1OCC(=O)N[C@H]1CC[C@H](CC1)CC(=O)N[C@@H](c1ccccc1)C(=O)N[C@H](CC1CCCCC1)C(=O)NCCc1ccc(cc1)OC2 | 227 |  |  |
| CCOc1cccc2c1OCC(=O)N[C@H]1CC[C@H](CC1)CC(=O)N[C@@H](CCSC)C(=O)N[C@H](Cc1ccccc1)C(=O)NCCc1ccc(cc1)OC2 | 212 |  | 9 (≈ 6.7 µg/mL) |
| CCOc1cccc2c1OCC(=O)N[C@H]1CC[C@H](CC1)CC(=O)N[C@@H](C(C)C)C(=O)N[C@H](Cc1ccccc1)C(=O)N[C@H](C(=O)NC)Cc1ccc(cc1)OC2 | 298 |  |  |
| CCOc1cccc2c1OCC(=O)N[C@H]1CC[C@H](CC1)CC(=O)N[C@@H](c1ccnc(OC)c1)C(=O)N[C@H](Cc1ccccc1)C(=O)NCCc1ccc(cc1)OC2 | 34 |  | 3 (≈ 2.33 µg/mL) |
| CCOc1cccc2c1OCC(=O)N[C@H]1CC[C@H](CC1)CC(=O)N[C@@H](c1ccccc1)C(=O)N[C@H](Cc1ccccc1)C(=O)N(C)CCc1ccc(cc1)OC2 (mixture of isomers) | 21800 |  |  |

Reference: ChEMBL document CHEMBL5528043, “Development of Potent Mcl-1 Inhibitors: Structural Investigations on Macrocycles Originating from a DNA-Encoded Chemical Library Screen” (J Med Chem, 2024)
